Experimental data: patent US8906909B2 (Curis, Inc., priority 2009, dated 2014)
Like-named read-outs stand apart in the source and are kept apart here.

Key:
Assay type in all cases: cell-based
[1] = system: L1210 cells; test: Cell proliferation assay Method B, L1210; conditions: Mouse LL, 72 hours, read-out: antiproliferative activity IC50, L1210
Procedure: (§1) Cancer cell lines were plated at 5,000 to 10,000 per well in 96-well flat bottomed plates with various concentration of compounds. The cells were incubated with compounds for 72 hours in the presence of 0.5% of fetal bovine serum. Growth inhibition was accessed by adenosine triphosphate (ATP) content assay using Promega CellTiter-Glo kit. Promega CellTiter-Glo kit is an ATP monitoring system based on firefly luciferase. Briefly, 16 μl of mammalian cell lysis and substrate solution was added to 84 μl of culture medium per well to lyse the cells and stabilize the ATP. The mixture was shaken and incubated for 30 minutes and subsequently the luminescence was measured.

[2] = system: MOLT-4 cells; test: Cell proliferation assay Method B, MOLT-4; conditions: Homo sapiens, ALL, 72 hours, read-out: antiproliferative activity IC50, MOLT-4
Procedure: as §1

[3] = system: U87MG cells; test: Cell proliferation assay Method B, U87MG; conditions: Homo sapiens, U-87 MG; Glioblastoma; Method B; 72 hours; read-out: antiproliferative activity IC50, U87MG
Procedure: as §1

[4] = system: RPMI-8226 cells; test: Cell proliferation assay Method B, RPMI-8226; conditions: Homo sapiens, Multiple Myeloma, Method B, 72 hours, read-out: antiproliferative activity IC50, RPMI-8226
Method in brief: (§2)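 Growth inhibition is determined from cellular ATP levels, measured by luciferase luminescence, following a 72-hour compound treatment in 0.5% fetal bovine serum.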

[5] = system: MV-4-11 cells; test: Cell proliferation assay Method B, MV-4-11; conditions: Homo sapiens, MV4-11, AML, 72 hours, read-out: antiproliferative activity IC50, MV-4-11
Procedure: as §1

[6] = system: Ca127 cells; test: Cell proliferation assay Method B, Ca127; conditions: HNC; Method B; 72 hours; read-out: antiproliferative activity IC50, Ca127
Procedure: as §1

[7] = system: THP-1 cells; test: Cell proliferation assay Method B, THP-1; conditions: Homo sapiens, AML, 72 hours, read-out: antiproliferative activity IC50, THP-1
Procedure: as §1

[8] = system: Daudi cells; test: Cell proliferation assay Method B, Daudi; conditions: Homo sapiens, NHL, 72 hours, read-out: antiproliferative activity IC50, Daudi
Procedure: as §1

[9] = system: MDA-MB-436 cells; test: Cell proliferation assay Method B, MDA-MB-436; conditions: Homo sapiens, Breast, Method B, 72 hours, read-out: antiproliferative activity IC50, MDA-MB-436
Procedure: as §1

[10] = system: A375 cells; test: Cell proliferation assay Method B, A375; conditions: Homo sapiens, A-375; Melanoma; Method B; 72 hours; read-out: antiproliferative activity IC50, A375
Procedure: as §1

[11] = system: K562 cells; test: Cell proliferation assay Method B, K562; conditions: Homo sapiens, CML, 72 hours, read-out: antiproliferative activity IC50, K562
Procedure: as §1

[12] = system: ARH77 cells; test: Cell proliferation assay Method B, ARH77; conditions: Homo sapiens, ARH-77, Multiple Myeloma, 72 hours, read-out: antiproliferative activity IC50, ARH77
Procedure: as §1

[13] = system: HCC1937 cells; test: Cell proliferation assay Method B, HCC1937; conditions: Homo sapiens, Breast, Method B, 72 hours, read-out: antiproliferative activity IC50, HCC1937
Procedure: as §1

[14] = system: MDA-MB-453 cells; test: Cell proliferation assay Method B, MDA-MB-453; conditions: Homo sapiens, Breast, 72 hours, read-out: antiproliferative activity IC50, MDA-MB-453
Procedure: as §1

[15] = system: ZR-75-1 cells; test: Cell proliferation assay Method B, ZR-75-1; conditions: Homo sapiens, Breast, 72 hours, read-out: antiproliferative activity IC50, ZR-75-1
Procedure: as §1

[16] = system: U937 cells; test: Cell proliferation assay Method B, U937; conditions: Homo sapiens, U-937, AML, 72 hours, read-out: antiproliferative activity IC50, U937
Procedure: as §1

[17] = system: BT474 cells; test: Cell proliferation assay Method B, BT474; conditions: Homo sapiens, BT-474; Breast; Method B; 72 hours; read-out: antiproliferative activity IC50, BT474
Method in brief: as §2

[18] = system: HCC1806 cells; test: Cell proliferation assay Method B, HCC1806; conditions: Homo sapiens, Breast, 72 hours, read-out: antiproliferative activity IC50, HCC1806
Procedure: as §1

[19] = system: P388 D1 cells; test: Cell proliferation assay Method B, P388 D1; conditions: P388D1, Mouse Lymphoma, 72 hours, read-out: antiproliferative activity IC50, P388 D1
Procedure: as §1

[20] = system: T47D cells; test: Cell proliferation assay Method B, T47D; conditions: Homo sapiens, Breast, 72 hours, read-out: antiproliferative activity IC50, T47D
Procedure: as §1

[21] = system: HCC1500 cells; test: Cell proliferation assay Method B, HCC1500; conditions: Breast, 72 hours, read-out: antiproliferative activity IC50, HCC1500
Procedure: as §1

[22] = system: H1993 cells; test: Cell proliferation assay Method B, H1993; conditions: Homo sapiens, NCI-H1993; NSCLC; Method B; 72 hours; read-out: antiproliferative activity IC50, H1993
Procedure: as §1

[23] = system: H1975 cells; test: Cell proliferation assay Method B, H1975; conditions: Homo sapiens, NCI-H1975; NSCLC; Method B; 72 hours; read-out: antiproliferative activity IC50, H1975
Procedure: as §1

[24] = system: MDA-MB-361 cells; test: Cell proliferation assay Method B, MDA-MB-361; conditions: Homo sapiens, Breast, 72 hours, read-out: antiproliferative activity IC50, MDA-MB-361
Procedure: as §1

[25] = system: UACC-893 cells; test: Cell proliferation assay Method B, UACC-893; conditions: Homo sapiens, Breast, 72 hours, read-out: antiproliferative activity IC50, UACC-893
Procedure: as §1

[26] = system: Pfeiffer cells; test: Cell proliferation assay Method B, Pfeiffer; conditions: Homo sapiens, NHL, 72 hours, read-out: antiproliferative activity IC50, Pfeiffer
Procedure: as §1

[27] = system: HL-60 cells; test: Cell proliferation assay Method B, HL-60; conditions: Homo sapiens, AML, 72 hours, read-out: antiproliferative activity IC50, HL-60
Procedure: as §1

[28] = system: MCF-7 cells; test: Cell proliferation assay Method B, MCF-7; conditions: Homo sapiens, MCF7, Breast, 72 hours, read-out: antiproliferative activity IC50, MCF-7
Procedure: as §1

[29] = system: MDA-MB-231 cells; test: Cell proliferation assay Method B, MDA-MB-231; conditions: Homo sapiens, Breast, Method B, 72 hours
Procedure: as §1

[30] = read-out: antiproliferative activity IC50, MDA-MB-231 (second listing, r32)

Structure (SMILES)	IC50 [1]	IC50 [2]	IC50 [3]	IC50 [4]	IC50 [5]	IC50 [6]	IC50 [7]	IC50 [8]	IC50 [9]	IC50 [10]	IC50 [11]	IC50 [12]	IC50 [13]	IC50 [14]	IC50 [15]	IC50 [16]	IC50 [17]	IC50 [18]	IC50 [19]	IC50 [20]	also measured
CN(Cc1cc2nc(-c3ccc(N)cc3)nc(N3CCOCC3)c2s1)c1ncc(C(=O)NO)cn1 [Compound 150, 2-(((2-(4-aminophenyl)-4-morpholinothieno[3,2-d]pyrimidin-6-yl)methyl)(methyl)amino)-N-hydroxypyrimidine-5-carboxamide]	< 10 nM	< 10 nM	< 10 nM	< 10 nM	< 10 nM	< 10 nM	< 10 nM	< 10 nM	< 10 nM	< 10 nM	10 to 100 nM	< 10 nM	< 10 nM	< 10 nM	10 to 100 nM	< 10 nM	< 10 nM	10 to 100 nM	< 10 nM	< 10 nM	IC50 [21]: < 10 nM; IC50 [22]: < 10 nM; IC50 [23]: < 10 nM; IC50 [24]: < 10 nM; IC50 [25]: < 10 nM; IC50 [26]: < 10 nM; IC50 [27]: < 10 nM; IC50 [28]: < 10 nM; IC50 [29, 30]: 10 to 100 nM
CS(=O)(=O)N1CCN(Cc2cc3nc(-c4cccc5[nH]ncc45)nc(N4CCOCC4)c3s2)CC1 [GDC-0941, reference compound]	> 10000 nM	100 to 1000 nM	100 to 1000 nM	> 10000 nM	1000 to 10000 nM	100 to 1000 nM	1000 to 10000 nM	> 10000 nM	1000 to 10000 nM	1000 to 10000 nM	> 10000 nM	> 10000 nM	100 to 1000 nM	100 to 1000 nM	100 to 1000 nM	1000 to 10000 nM	100 to 1000 nM	> 10000 nM	1000 to 10000 nM	> 10000 nM	IC50 [21]: > 10000 nM; IC50 [22]: 1000 to 10000 nM; IC50 [23]: 100 to 1000 nM; IC50 [24]: 100 to 1000 nM; IC50 [25]: 1000 to 10000 nM; IC50 [26]: 100 to 1000 nM; IC50 [27]: 100 to 1000 nM; IC50 [28]: 100 to 1000 nM; IC50 ([29]; read-out: antiproliferative activity IC50, MDA-MB-231 (first listing, r25)): > 10000 nM; IC50 [29, 30]: > 10000 nM
